Measurements as given in ChEMBL document CHEMBL1201862, “PubChem BioAssay data set” (2004).
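Growth conditions: 96-well plates. Treatment: test compound, 48 hours, 5 concentrations. Analysis: linear interpolation between bracketing concentrations; unreached endpoints set to highest concentration. GI50 is the concentration that inhibits growth by half.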 Calls of active or inactive are those of the source. Cut-off read from the data, not from the text of the source: active = GI50 up to about 1.1 µM and inactive = higher.

Assays:
Experiment in all cases: inhibition of tumour cell growth, NCI panel, 48 h
[1] = system: SN12C
[2] = system: UO-31
[3] = system: NCI-H522
[4] = system: SK-MEL-5
[5] = system: XF498
[6] = system: OVCAR-4
[7] = system: Malme-3M
[8] = system: MOLT-4
[9] = system: IGROV-1
[10] = system: A498
[11] = system: SR
[12] = system: COLO 205
[13] = system: RXF 393
[14] = system: ACHN
[15] = system: LOX IMVI
[16] = system: OVCAR-3
[17] = system: SF-268
[18] = system: M14
[19] = system: UACC-257

Measured: GI50

C=CCOCCCC(=O)C(=[N+]=[N-])C(=O)OC
inactive: [1] > 100 µM | [2] > 100 µM | [3] > 100 µM | [4] > 100 µM | [5] > 100 µM | [6] > 100 µM | [7] > 100 µM | [8] > 100 µM | [9] > 100 µM | [10] > 100 µM | [11] > 100 µM | [12] > 100 µM | [13] > 100 µM | [14] > 100 µM | [15] > 100 µM | [16] > 100 µM | [17] > 100 µM | [18] > 100 µM | [19] > 100 µM

O=S(=O)(SCc1ccccc1)C(c1ccccc1)c1ccccc1
inactive: [1] 24.1 µM | [2] 64.6 µM | [3] 26.6 µM | [4] 22.5 µM | [5] 58.1 µM | [6] 48.9 µM | [7] 36.1 µM | [8] 3.7 µM | [9] 32.7 µM | [10] 29.6 µM | [11] 15.2 µM | [12] 19.6 µM | [13] 21.9 µM | [14] 37.8 µM | [15] 30.4 µM | [16] 29.1 µM | [17] 57.1 µM | [18] 24 µM | [19] 32.9 µM

CC(=O)Nc1ccc(/C=c2\sc3nnc(CCC(=O)Nc4ccccc4Cl)n3c2=O)cc1
inactive: [1] 39.6 µM | [2] > 100 µM | [3] 18.7 µM | [4] 25 µM | [5] 25.1 µM | [6] 20.6 µM | [7] 38.8 µM | [8] 19.4 µM | [9] > 100 µM | [11] 20.3 µM | [13] 27.3 µM | [14] > 100 µM | [15] 17.2 µM | [16] 21.6 µM | [17] 26.4 µM | [18] 16.7 µM | [19] > 10 µM

COc1nc2c(nc(N)n2C2OC(CO)C(O)C(O)C2O)c(=O)[nH]1 (configuration not stated)
inactive: [1] > 100 µM | [2] > 100 µM | [3] > 100 µM | [4] > 100 µM | [5] > 100 µM | [6] > 100 µM | [7] > 100 µM | [9] > 100 µM | [10] > 100 µM | [11] > 100 µM | [12] > 100 µM | [13] > 100 µM | [14] > 100 µM | [15] > 100 µM | [16] > 100 µM | [17] > 100 µM | [18] > 100 µM | [19] > 100 µM

CCCCCCCCCCCCOC(=S)NC
inactive: [1] 17.7 µM | [2] 19 µM | [3] 27.5 µM | [5] 20 µM | [6] 24.1 µM | [7] 21.6 µM | [8] 13.1 µM | [9] 18 µM | [10] 18.1 µM | [11] 14.1 µM | [13] 16.6 µM | [14] 20 µM | [15] 14.1 µM | [17] 20.2 µM | [18] 19.7 µM | [19] 20.3 µM

COc1ccc(OC)c2c(C(=O)O)c(Cc3ccccc3)ccc12
inactive: [1] > 100 µM | [2] > 100 µM | [3] > 100 µM | [4] > 100 µM | [5] > 100 µM | [6] > 100 µM | [7] > 100 µM | [8] > 100 µM | [9] > 100 µM | [10] > 100 µM | [11] > 100 µM | [12] > 100 µM | [13] > 100 µM | [14] > 100 µM | [15] > 100 µM | [16] > 100 µM | [17] > 100 µM | [18] > 100 µM | [19] > 100 µM

O=c1cc(-c2ccccc2)[nH]c2c(Cl)cccc12
inactive: [1] 46.2 µM | [2] 34.2 µM | [4] 5.86 µM | [5] 26.8 µM | [6] 18.9 µM | [7] 64.9 µM | [8] 8.34 µM | [9] 4.86 µM | [10] 14.2 µM | [11] 7.53 µM | [12] 29.7 µM | [13] 15.7 µM | [14] 78 µM | [15] 9.35 µM | [16] 24.5 µM | [17] 38.4 µM | [18] 9.31 µM | [19] 78.3 µM

CCN(CC)CCC(=O)/C=C/c1ccc(C)cc1
inactive: [1] 12 µM | [2] 16.2 µM | [4] 16.6 µM | [5] 12.4 µM | [6] 18.4 µM | [7] 19.3 µM | [8] 11.7 µM | [9] 15.3 µM | [10] 11.2 µM | [11] 6.78 µM | [12] 4.72 µM | [13] 15.3 µM | [14] 14.4 µM | [15] 4.53 µM | [16] 16.7 µM | [17] 15.8 µM | [18] 13.7 µM | [19] 13.9 µM

COC(=O)C(CC(=O)c1ccccc1)c1ccccc1NC(C)=O (configuration not stated)
inactive: [1] > 100 µM | [2] 29.9 µM | [3] > 100 µM | [4] > 100 µM | [5] > 100 µM | [6] > 100 µM | [7] > 100 µM | [8] > 100 µM | [9] > 100 µM | [10] > 100 µM | [11] > 100 µM | [12] > 100 µM | [14] > 100 µM | [15] > 100 µM | [16] > 100 µM | [17] > 100 µM | [18] > 100 µM | [19] > 100 µM

CC1CC2(S(=O)(=O)c3ccccc3)ON1CC2S(=O)(=O)c1ccccc1 (configuration not stated)
inactive: [1] > 100 µM | [2] > 100 µM | [3] 70.8 µM | [5] > 100 µM | [6] > 100 µM | [7] > 100 µM | [8] > 100 µM | [9] > 100 µM | [11] > 100 µM | [12] > 100 µM | [13] > 100 µM | [14] > 100 µM | [15] > 100 µM | [16] > 100 µM | [17] > 100 µM | [18] > 100 µM | [19] > 100 µM

CC1=C/C(=C2/N=C(N(C)C)SS2)C(C)=N1.[O-][Cl+3]([O-])([O-])O
inactive: [1] > 100 µM | [2] > 100 µM | [3] 4.33 µM | [5] > 100 µM | [6] 71.3 µM | [7] 21.8 µM | [8] > 100 µM | [9] > 100 µM | [10] > 100 µM | [11] > 100 µM | [12] 3.07 µM | [13] > 100 µM | [14] > 100 µM | [15] 37.3 µM | [16] > 100 µM | [17] > 100 µM | [18] > 100 µM | [19] > 100 µM
